In patent US4238620A, “Dibenz[b,f]oxepin and dibenzo[b,f]thiepin derivatives, process for preparation thereof, method of using the same, and compositions thereof” (priority 1978, dated 1980):
Like-named read-outs stand apart in the source and are kept apart here.

Experiments:
[1] = tested on: Carrageenin-induced hind paw oedema in rats; test: Carrageenin-induced hind paw oedema in rats (CAR method), acute inflammation; assay type: in vivo; settings: Rattus norvegicus, po, read-out: Anti-inflammatory activity ED50, acute inflammation, CAR
Protocol: (§1) (1) Effect on acute inflammation:
(a) Carrageenin-induced hind paw oedema in rats (CAR method)
The test was carried out according to the method described in Proc. Soc. Exp. Biol. Med., 111, 544 (1962).

[2] = tested on: Ultraviolet-induced erythema in guinea-pigs; test: Ultraviolet-induced erythema in guinea-pigs (UVE method), acute inflammation; assay type: in vivo; settings: Cavia porcellus, po, read-out: Anti-inflammatory activity ED50, acute inflammation, UVE
Protocol: as §1
(b) Ultraviolet-induced erythema in guinea-pigs (UVE method)
The test was carried out according to the method described in Arch. Int. Pharmacodyn. Ther., 116, 261 (1958).

[3] = tested on: Felt pellet-induced granuloma formation in rats; test: Felt pellet-induced granuloma formation in rats (FGF method), subacute and chronic inflammation; assay type: in vivo; settings: Rattus norvegicus, po, read-out: Minimum Effective Dose, subacute and chronic inflammation, FGF*
Protocol: (§2) (2) Effect on subacute and chronic inflammations:
(b) Felt pellet-induced granuloma formation in rats (FGF method)
The test was carried out according to the method described in J. Amer. Pharm. Assoc., 46, 515 (1957) and Chem. Pharm. Bull., 23, 1446 (1975).

[4] = Gastrointestinal ulcer formation in fed rats (ulcerogenicity); assay type: in vivo; settings: rat, in vivo, po, fed rats; read-out: UD50 (50% ulcer forming dose)
Protocol: (§3) TEST 4. ULCEROGENICITY IN GASTROINTESTINAL TRACT
(§4) Gastrointestinal ulcer formation in fed rats
(§5) The test was carried out according to the method described in Science, 170, 183 (1970).

in vivo [5] = settings: rat, po
[6] = tested on: adjuvant-induced arthritis in rats; test: Therapeutic activity on adjuvant-induced arthritis in rats (AAT method), subacute and chronic inflammation; assay type: in vivo; settings: Rattus norvegicus, po, read-out: Minimum Effective Dose, subacute and chronic inflammation, AAT*
Protocol: as §2
(a) Therapeutic activity on adjuvant-induced arthritis in rats (AAT method)
The test was carried out according to the method described in Brit. J. Pharmacol., 21, 127 (1963) and Japan J. Pharmacol., 23, 58 (1973).

[7] = tested on: Yeast-induced fever in rats; test: Yeast-induced fever in rats (YEF method), antipyretic activity; assay type: in vivo; settings: Rattus norvegicus, po, read-out: Antipyretic activity ED50, YEF
Protocol: TEST 3. ANTIPYRETIC ACTIVITY
Yeast-induced fever in rats (YEF method)
The test was carried out according to the method described in Arzneim. Forsch., 13, 338 (1963).

[8] = tested on: AgNO3-induced joint pain in rats; test: AgNO3-induced joint pain in rats (AGP method), analgesic activity; assay type: in vivo; settings: Rattus norvegicus, po, read-out: Analgesic activity ED50, AGP
Protocol: (§6) TEST 2. ANALGESIC ACTIVITY
(a) AgNO3 -induced joint pain in rats (AGP method)
The test was carried out according to the method described in J. Pharmacol. Expt. Ther., 98, 19 (1950)

[9] = tested on: Acetic acid (AcOH)-induced writhing in rats; test: Acetic acid (AcOH)-induced writhing in rats (ACW method), analgesic activity; assay type: in vivo; settings: Rattus norvegicus, po, read-out: Analgesic activity ED50, ACW
Protocol: as §6
(b) Acetic acid (AcOH)-induced writhing in rats (ACW method)
The test was carried out according to the method described in Arzneim. Forsch., 25, 1505 (1975).

[10] = Safety index (UD50/ED50 or MED), separation of activity from ulcerogenicity; assay type: in vivo; settings: for separation of anti-inflammatory, analgesic and antipyretic activities from ulcerogenicity: FIGS. 1 and 2, vs indomethacin
Source text: (§7) From these diagrams, the correlation between the pharmacological activity of each compound and its ulcerogenicity and toxicity, i.e. the safety margin of each compound, can be clearly seen. In these Figures, the lines and letters have the following meanings:
(§8) The following conclusions can be drawn from Tables I to III and FIGS. 1 and 2. In the following description, the therapeutic index means LD50 /ED50 (or MED), and the safety index means UD50 /ED50 (or MED). The safety margin of a given compound is broader when it has larger therapeutic and or safety indices.

[11] = assay type: in vivo; settings: for therapeutic index compared with indomethacin: vs indomethacin
Source text: In the following description, the therapeutic index means LD50 /ED50 (or MED), and the safety index means UD50 /ED50 (or MED).

[12] = Overall comparison of anti-inflammatory, analgesic and antipyretic activities (Tests 1 to 3); assay type: in vivo, rats; guinea-pigs; settings: for anti-inflammatory, analgesic and antipyretic activities compared with indomethacin: vs indomethacin (compound 3)
Source text: as §7, §8

in vivo [13] = settings: rat, po; remark: listed apart in the source
Protocol: (§9) (b) Repeated administrations in rats
(§10) Test compounds were orally administered once daily for 5 days, and LD50 -value was calculated from the mortality on the 6th day.

rats = test: Overall comparison of lethal toxicity (Test 5); assay type: in vivo; settings: for toxicity compared with indomethacin (in words): vs indomethacin
Protocol: (a) Single administration in rats
as §9, §10

[14] = tested on: Gastrointestinal ulcer formation in fed rats; test: Gastrointestinal ulcer formation in fed rats (ulcerogenicity); assay type: in vivo; settings: fraction of that of compound 2
Protocol: as §3, §4, §5

[15] = rats, single administration, 7th day, read-out: LD50 Single
[16] = rats, once daily for 5 days, mortality on 6th day, read-out: LD50 Repeated

Compound	ED50 [1] [mg/kg]	ED50 [2] [mg/kg]	minimal effective dose [3] [mg/kg/day]	TD50 [4] [mg/kg]	LD50 at 168 h (in vivo [5]; [15]) [mg/kg]	minimal effective dose [6] [mg/kg/day]	ED50 [7] [mg/kg]	ED50 [8] [mg/kg]	ED50 [9] [mg/kg]	LD50 at 144 h (in vivo [13]; [16]) [mg/kg]	toxicity compared with indomethacin (in words) (rats)	ED50 ([1]; rats, CAR method) [mg/kg]	also measured
CC(C(=O)O)c1ccc2c(c1)C(=O)Cc1ccccc1O2 (stereo not drawn) [compound 1, 2-(10,11-dihydro-11-oxodibenz[b,f]oxepin-2-yl)propionic acid, reference compound]	3.65	0.93	3	4.85	106	1	0.062	5.8					
Cc1ccc2c(c1)CC(=O)c1cc(C(C)C(=O)O)ccc1O2 (racemic) [compound A, dl-2-(8-Methyl-10,11-dihydro-11-oxodibenz[b,f]oxepin-2-yl)propionic acid]	3.38	0.3	2	2.97	147	0.2	0.021	2.6	0.28	> 12	far weaker than those of indomethacin		separation of anti-inflammatory, analgesic and antipyretic activities from ulcerogenicity [10]: more separated from ulcerogenicity in the gastrointestinal tract than in indomethacin; average safety index relative to compound 1 ([10]; UD50/ED50 (or MED), vs compound 1): about 1.6 times; average therapeutic index relative to compound 1 ([11]; LD50/ED50 (or MED), vs compound 1): about 3.7 times; therapeutic index compared with indomethacin [11]: far larger therapeutic indices than indomethacin; pharmacological activities compared with compound 1 ([12]; vs compound 1): stronger pharmacological activities in all the methods tested; pharmacological potency and/or safety margin compared with compound 1 ([12]; vs compound 1): superior to compound 1 not only in pharmacological activities but also in safety margin; anti-inflammatory, analgesic and antipyretic activities compared with indomethacin [12]: equivalent or superior to those of indomethacin; toxicity relative to compound 1 (rats; vs compound 1): less toxic than compound 1
Cc1ccc2c(c1)CC(=O)c1cc(C(C)C(=O)OCCOCCO)ccc1S2 (racemic) [compound G, 2-(2-Hydroxyethoxy)ethyl dl-2-(8-methyl-10,11-dihydro-11-oxodibenzo[b,f]thiepin-2-yl)propionate]	5.94	2.52		2.94		≤ 0.2	0.041	0.96	0.33	> 16	far weaker than those of indomethacin		separation of anti-inflammatory, analgesic and antipyretic activities from ulcerogenicity [10]: more separated from ulcerogenicity in the gastrointestinal tract than in indomethacin; average safety index relative to compound 2 ([10]; UD50/ED50 (or MED), vs compound 2): about 5 times; average therapeutic index relative to compound 2 ([11]; LD50/ED50 (or MED), vs compound 2): more than 8 times; breadth of safety margin compared with compound 2 ([11]; safety margin, vs compound 2): far superior to compound 2; therapeutic index compared with indomethacin [11]: far larger therapeutic indices than indomethacin; analgesic activity compared with compounds 2 and C ([12]; AGP, ACW, vs compounds 2 and C): stronger than those of compounds 2 and C; antiinflammatory and antipyretic activities compared with compounds 2 and C ([12]; vs compounds 2 and C): weaker than those of compounds 2 and C; anti-inflammatory, analgesic and antipyretic activities compared with indomethacin [12]: equivalent or superior to those of indomethacin; ulcerogenicity relative to compound 2 [14]: about 1/5; toxicity relative to compound 2 (rats; fraction of that of compound 2): less than 1/7
CC(C(=O)O)c1ccc2c(c1)C(=O)Cc1ccccc1S2 (stereo not drawn) [compound 2, 2-(10,11-dihydro-11-oxodibenzo[b,f]thiepin-2-yl)propionic acid, reference compound]	1.2	0.98	0.25	0.62		< 0.1	0.022	1.66	1.16	2.15			
Cc1ccc2c(c1)CC(=O)c1cc(CC(=O)OCCOCCO)ccc1O2 [compound F, 2-(2-Hydroxyethoxy)ethyl 8-methyl-10,11-dihydro-11-oxodibenz[b,f]oxepin-2-acetate]												7.95	
CC(C(=O)OCCOCCO)c1ccc2c(c1)C(=O)Cc1ccccc1O2 (racemic) [compound D, 2-(2-Hydroxyethoxy)ethyl dl-2-(10,11-dihydro-11-oxodibenz[b,f]oxepin-2-yl)propionate]											far weaker than those of indomethacin	2.87	ED50 ([9]; rats, ACW method): 1.06 mg/kg; ED50 ([2]; guinea-pigs, UVE method): 1.5 mg/kg; minimal effective dose ([3]; rats, FGF method): 6 mg/kg/day; activity on subacute and chronic inflammation compared with indomethacin ([12]; AAT and FGF, vs indomethacin): inferior to that of indomethacin; anti-inflammatory (acute), analgesic and antipyretic activities compared with indomethacin ([12]; acute inflammation, analgesic, antipyretic, vs indomethacin): almost equivalent to those of indomethacin; pharmacological activities compared with compound 1 ([12]; vs compound 1): comparable to those of compound 1; LD50 at 144 h (in vivo [13]): > 24 mg/kg; LD50 at 168 h (in vivo [5]): 260 mg/kg; minimal effective dose ([6]; rats, AAT method): 1 mg/kg/day; ED50 ([7]; rats, YEF method): 0.112 mg/kg; ED50 ([8]; rats, AGP method): 4.6 mg/kg
COc1ccc2c(c1)c(CC(=O)O)c(C)n2C(=O)c1ccc(Cl)cc1 [compound 3, indomethacin, reference compound]	3.3	9.12	2	3.95	18.5	0.2 to 0.4	0.223	4.1	0.44	~5			
Cc1ccc2c(c1)CC(=O)c1cc(CC(=O)O)ccc1O2 [compound B, 8-Methyl-10,11-dihydro-11-oxodibenz[b,f]oxepin-2-acetic acid]												2.2	ED50 ([2]; guinea-pigs, UVE method): 4.48 mg/kg; minimal effective dose ([3]; rats, FGF method): 20 mg/kg/day; activity on acute inflammation and fever compared with indomethacin ([12]; acute inflammation and fever, vs indomethacin): nearly comparable to that of indomethacin; ED50 ([7]; rats, YEF method): 0.357 mg/kg
